Results as given in patent publication US20080063704A1, “Stable gabapentin compositions” (priority 2004, published 2008).

Legend:
Format in all cases: physicochemical
[1] = Pre-formulation excipient compatibility study: HPLC assay for related substances
Excerpt: HPLC Assay for Related Substances
(§1) All the ingredients were passed through 20 mesh screen and blended together. The results of all the pre-formulation compatibility studies are given in Tables 25 to 39, including comparative results for the drug substance (Table 39) and UK reference product (Table 38) as controls.
(§2) Aim: To carry out preformulation excipient compatibility studies for Gabapentin capsules
(§3) Binary mixtures to be evaluated (with and without water as necessary):
(§4) 1. Drug and diluents (1:0.5)
(§5) 2. Drug and lubricants(1:0.1)
(§6) 3. Drug and solubilizer (1:0.001)
(§7) 4. Proposed formulation from the in vitro formulation trials to confirm the extent of interactions and identify suitably stable formulations.
Significant degradation is defined as
1. >0.5% w/w formation of lactam degradation product at conditions up to 40° C./75% RH.
2. Formation of other degradants at levels >0.1% w/w.
3. Greater relative instability of mixture or formulation to Gabapentin drug substance and Neurotonin capsules.
(§8) Where humidity controls are not available a defined amount of water may be added to the samples. Storage of samples was in petridishes and in stoppered glass vials.
(§9) The following tests were performed at 14 and 28 day intervals.
3. HPLC assay for related substances

[2] = Pre-formulation excipient compatibility study: HPLC assay
Excerpt: as §1, §2, §3, §4, §5, §6, §7, §8
(§10) The following tests were performed at each interval:
2. HPLC assay (as for HPLC related substances assay but calibrated for gabapentin resolution rather than for related substances)

[3] = Pre-formulation excipient compatibility study: Appearance
Excerpt: as §1, §2, §3, §4, §5, §6, §7, §8, §10, §9

NCC1(CC(=O)O)CCCCC1 [Gabapentin]
Impurities a) Lactam content ([1]; 25° C./60% RH, 14 days): Nil
Impurities b) Single largest individual Impurities ([1]; 25° C./60% RH, 14 days): Nil
Impurities c) Total other Impurities ([1]; 25° C./60% RH, 14 days): Nil
Impurities d) Total Impurities ([1]; 25° C./60% RH, 14 days): Nil
Impurities a) Lactam content ([1]; 25° C./60% RH, 28 days): Nil
Impurities b) Single largest individual Impurities ([1]; 25° C./60% RH, 28 days): Nil
Impurities c) Total other Impurities ([1]; 25° C./60% RH, 28 days): Nil
Impurities d) Total Impurities ([1]; 25° C./60% RH, 28 days): Nil
Impurities a) Lactam content ([1]; 40° C./75% RH, 14 days): Nil
Impurities b) Single largest individual Impurities ([1]; 40° C./75% RH, 14 days): Nil
Impurities c) Total other Impurities ([1]; 40° C./75% RH, 14 days): Nil
Impurities d) Total Impurities ([1]; 40° C./75% RH, 14 days): Nil
Impurities a) Lactam content ([1]; 40° C./75% RH, 28 days): Nil
Impurities b) Single largest individual Impurities ([1]; 40° C./75% RH, 28 days): Nil
Impurities c) Total other Impurities ([1]; 40° C./75% RH, 28 days): Nil
Impurities d) Total Impurities ([1]; 40° C./75% RH, 28 days): Nil
Impurities a) Lactam content ([1]; 50° C., 14 days): 0.004%
Impurities b) Single largest individual Impurities ([1]; 50° C., 14 days): Nil
Impurities c) Total other Impurities ([1]; 50° C., 14 days): Nil
Impurities d) Total Impurities ([1]; 50° C., 14 days): Nil
Impurities a) Lactam content ([1]; 50° C., 28 days): 0.004%
Impurities b) Single largest individual Impurities ([1]; 50° C., 28 days): Nil
Impurities c) Total other Impurities ([1]; 50° C., 28 days): Nil
Impurities d) Total Impurities ([1]; 50° C., 28 days): Nil
Impurities a) Lactam content ([1]; Initial): Nil
Impurities b) Single largest individual Impurities ([1]; Initial): Nil
Impurities c) Total other Impurities ([1]; Initial): Nil
Impurities d) Total Impurities ([1]; Initial): Nil
Assay ([2]; 25° C./60% RH, 7 days): 98.6%
Assay ([2]; 25° C./60% RH, 14 days): 98.6%
Assay ([2]; 25° C./60% RH, 28 days): 98.51%
Assay ([2]; 40° C./75% RH, 7 days): 98.53%
Assay ([2]; 40° C./75% RH, 14 days): 98.4%
Assay ([2]; 40° C./75% RH, 28 days): 97.79%
Assay ([2]; 50° C., 7 days): 98.5%
Assay ([2]; 50° C., 14 days): 98.5%
Assay ([2]; 50° C., 28 days): 98.1%
Assay ([2]; Initial): 99.4%
Description ([3]; 25° C./60% RH, 3 days): White
Description ([3]; 25° C./60% RH, 7 days): White
Description ([3]; 25° C./60% RH, 14 days): White
Description ([3]; 25° C./60% RH, 28 days): White
Description ([3]; 40° C./75% RH, 3 days): White
Description ([3]; 40° C./75% RH, 7 days): White
Description ([3]; 40° C./75% RH, 14 days): White
Description ([3]; 40° C./75% RH, 28 days): White
Description ([3]; 50° C., 3 days): White
Description ([3]; 50° C., 7 days): White
Description ([3]; 50° C., 14 days): White
Description ([3]; 50° C., 28 days): White
Description ([3]; Initial): White
